Reference: ChEMBL document CHEMBL5537115, “New broad-spectrum and potent antibacterial agents with dual-targeting mechanism: Promoting FtsZ polymerization and disrupting bacterial membranes” (Eur J Med Chem, 2024)
Values after ≈ are worked out from the molar mass of the structure shown. Active and inactive are the calls of the source. No cut-off for these calls is given here.

Tests used:
[1] = tested on: Enterococcus faecium; experiment: Antibacterial activity against vancomycin-resistant Enterococcus faecium ATCC51559 assessed as bacterial growth inhibition incubated for 20 hrs by CLSI based broth microdilution method; assay type: functional
[2] = tested on: Escherichia coli; experiment: Antibacterial activity against wild-type Escherichia coli BW25113 assessed as bacterial growth inhibition incubated for 20 hrs by CLSI based broth microdilution method; assay type: functional
[3] = tested on: Staphylococcus aureus; experiment: Antibacterial activity against erythromycin-susceptible Staphylococcus aureus ATCC25923 incubated for 18 to 24 hrs; assay type: functional; conditions: time 18-24 hrs
[4] = tested on: Klebsiella pneumoniae; experiment: Antibacterial activity against Klebsiella pneumoniae ATCC BAA-1902 assessed as bacterial growth inhibition incubated for 20 hrs by CLSI based broth microdilution method; assay type: functional
[5] = tested on: Streptococcus pyogenes; experiment: Antibacterial activity against erythromycin-susceptible Streptococcus pyogenes 1 assessed as bacterial growth inhibition incubated for 20 hrs by CLSI based broth microdilution method; assay type: functional
[6] = tested on: Enterococcus faecium; experiment: Antibacterial activity against vancomycin-susceptible Enterococcus faecium ATCC19434 assessed as bacterial growth inhibition incubated for 20 hrs by CLSI based broth microdilution method; assay type: functional
[7] = tested on: Staphylococcus aureus; experiment: Antibacterial activity against methicillin-resistant Staphylococcus aureus ATCC43300 incubated for 18 to 20 hrs; assay type: functional; conditions: time 18-20 hrs
[8] = tested on: Staphylococcus aureus; experiment: Antibacterial activity against Staphylococcus aureus clinical isolate incubated for 18 to 24 hrs; assay type: functional; conditions: time 18-24 hrs
[9] = tested on: Bacillus pumilus; experiment: Antibacterial activity against penicillin-susceptible Bacillus pumilus CMCC63202 assessed as bacterial growth inhibition incubated for 20 hrs by CLSI based broth microdilution method; assay type: functional
[10] = tested on: Acinetobacter baumannii; experiment: Antibacterial activity against Acinetobacter baumannii ATCC19606 assessed as bacterial growth inhibition incubated for 20 hrs by CLSI based broth microdilution method; assay type: functional
[11] = tested on: Acinetobacter baumannii; experiment: Antibacterial activity against Acinetobacter baumannii ATCC19606 incubated for 18 to 24 hrs; assay type: functional; conditions: time 18-24 hrs
[12] = tested on: Streptococcus pyogenes; experiment: Antibacterial activity against erythromycin-resistant Streptococcus pyogenes 2 clinical isolate assessed as bacterial growth inhibition incubated for 20 hrs by CLSI based broth microdilution method; assay type: functional
[13] = tested on: Staphylococcus epidermidis; experiment: Antibacterial activity against penicillin-resistant Staphylococcus epidermidis clinical isolate assessed as bacterial growth inhibition incubated for 20 hrs by CLSI based broth microdilution method; assay type: functional
[14] = tested on: Escherichia coli; experiment: Antibacterial activity against penicillin-susceptible Escherichia coli ATCC25922 assessed as bacterial growth inhibition incubated for 20 hrs by CLSI based broth microdilution method; assay type: functional
[15] = tested on: Bacillus subtilis; experiment: Antibacterial activity against penicillin-susceptible Bacillus subtilis ATCC9372 assessed as bacterial growth inhibition incubated for 20 hrs by CLSI based broth microdilution method; assay type: functional
[16] = tested on: Bacillus subtilis; experiment: Antibacterial activity against penicillin-susceptible Bacillus subtilis ATCC9372 incubated for 18 to 24 hrs; assay type: functional; conditions: time 18-24 hrs
[17] = tested on: Bacillus subtilis; experiment: Selectivity ratio of MBC for penicillin-susceptible Bacillus subtilis ATCC9372 to MIC for penicillin-susceptible Bacillus subtilis ATCC9372; assay type: functional
[18] = tested on: Staphylococcus aureus; experiment: Antibacterial activity against Staphylococcus aureus clinical isolate assessed as bacterial growth inhibition incubated for 20 hrs by CLSI based broth microdilution method; assay type: functional
[19] = tested on: Staphylococcus aureus; experiment: Antibacterial activity against erythromycin-susceptible Staphylococcus aureus ATCC25923 assessed as bacterial growth inhibition incubated for 20 hrs by CLSI based broth microdilution method; assay type: functional
[20] = tested on: Acinetobacter baumannii; experiment: Selectivity ratio of MBC for Acinetobacter baumannii ATCC19606 to MIC for Acinetobacter baumannii ATCC19606; assay type: functional
[21] = tested on: Staphylococcus aureus; experiment: Selectivity ratio of MBC for erythromycin-susceptible Staphylococcus aureus ATCC25923 to MIC for erythromycin-susceptible Staphylococcus aureus ATCC25923; assay type: functional
[22] = tested on: Staphylococcus aureus; experiment: Antibacterial activity against methicillin-resistant Staphylococcus aureus ATCC43300 assessed as bacterial growth inhibition incubated for 20 hrs by CLSI based broth microdilution method; assay type: functional
[23] = tested on: Enterococcus faecalis; experiment: Antibacterial activity against vancomycin-resistant Enterococcus faecalis ATCC51299 assessed as bacterial growth inhibition incubated for 20 hrs by CLSI based broth microdilution method; assay type: functional
[24] = tested on: Staphylococcus aureus; experiment: Selectivity ratio of MBC for Staphylococcus aureus clinical isolate to MIC for Staphylococcus aureus clinical isolate; assay type: functional
[25] = tested on: Enterococcus faecalis; experiment: Antibacterial activity against vancomycin-susceptible Enterococcus faecalis ATCC29212 assessed as bacterial growth inhibition incubated for 20 hrs by CLSI based broth microdilution method; assay type: functional
[26] = tested on: Staphylococcus aureus; experiment: Antibacterial activity against penicillin-resistant Staphylococcus aureus ATCC31007 assessed as bacterial growth inhibition incubated for 20 hrs by CLSI based broth microdilution method; assay type: functional
[27] = tested on: Staphylococcus aureus; experiment: Selectivity ratio of MBC for methicillin-resistant Staphylococcus aureus ATCC43300 to MIC for methicillin-resistant Staphylococcus aureus ATCC43300; assay type: functional
[28] = tested on: Staphylococcus aureus; experiment: Effect on proton gradient of cytoplasmic membrane in Staphylococcus aureus ATCC25923 at 1 ug/ml measured after 20 mins by diSC35 dye based analysis; assay type: functional, organism-based; conditions: Cytoplasm membrane, dose 1.0 µg/ml
[29] = tested on: Staphylococcus aureus; experiment: Induction of resistance development in Staphylococcus aureus ATCC25923 assessed as fold increase in MIC at 0.5 times MIC measured after 32 days by multi-passage resistance assay relative to control; assay type: functional; conditions: time 32.0 day

Row | SMILES | MIC [1] | MIC [2] | MBC [3] | MIC [4] | MIC [5] | MIC [6] | MBC [7] | MBC [8] | MIC [9] | MIC [10] | MIC [12] | MIC [13] | MIC [14] | MIC [15] | MIC [18] | MIC [19] | MIC [22] | MIC [23] | MIC [25] | MIC [26] | also measured
1 | CC(=O)NC[C@H]1CN(c2ccc(N3CCOCC3)c(F)c2)C(=O)O1 [LINEZOLID] | 4 µg/mL (≈ 11.9 µM) | > 64 µg/mL | > 64 µg/mL | > 64 µg/mL | 1 µg/mL (≈ 2.96 µM) | 8 µg/mL (≈ 23.7 µM) | 8 µg/mL (≈ 23.7 µM) | > 64 µg/mL | 2 µg/mL (≈ 5.93 µM) | > 64 µg/mL | 1 µg/mL (≈ 2.96 µM) | 4 µg/mL (≈ 11.9 µM) | > 64 µg/mL | 0.5 µg/mL (≈ 1.48 µM) | – | – | – | – | – | – | MBC [11]: > 64 µg/mL; MBC [16]: 64 µg/mL (≈ 190 µM)
2 | CN(C)c1ccc(/C=C/c2cc(-c3ccc(C(C)(C)C)cc3)[n+](C)cc2-c2ccccc2)cc1.[I-] | 2 µg/mL | 8 µg/mL | 1 µg/mL | 8 µg/mL | 2 µg/mL | 2 µg/mL | 1 µg/mL | 1 µg/mL | 0.25 µg/mL | 1 µg/mL | 2 µg/mL | 1 µg/mL | 4 µg/mL | 0.125 µg/mL | 0.125 µg/mL | 0.125 µg/mL | 0.25 µg/mL | 2 µg/mL | 2 µg/mL | 0.5 µg/mL | Ratio [17]: 16; Ratio [20]: 4; Ratio [21]: 8; MBC [11]: 4 µg/mL; Ratio [24]: 4; MBC [16]: 2 µg/mL
3 | Cc1ccccc1-c1c[n+](C)c(-c2ccc(C(C)(C)C)cc2)cc1/C=C/c1ccc(N(C)C)cc1.[I-] | 0.5 µg/mL | 2 µg/mL | 0.25 µg/mL | 16 µg/mL | 2 µg/mL | 1 µg/mL | 0.5 µg/mL | 1 µg/mL | 0.5 µg/mL | 1 µg/mL | 2 µg/mL | 1 µg/mL | 4 µg/mL | 0.5 µg/mL | 0.25 µg/mL | 0.125 µg/mL | 0.5 µg/mL | 2 µg/mL | 2 µg/mL | 1 µg/mL | Ratio [17]: 4; Ratio [27]: 1; Ratio [20]: 2; Ratio [21]: 2; MBC [11]: 2 µg/mL; Ratio [24]: 4; MBC [16]: 2 µg/mL
4 | C[n+]1ccc(/C=C/c2ccccc2)c(-c2ccccc2)c1 | – | – | – | – | – | – | – | – | – | – | – | – | – | – | – | – | – | – | – | – | Activity [28]: inactive
5 | C[n+]1cc2c3c(ccc2c2ccc4cc5c(cc4c21)OCO5)OCO3 | 32 µg/mL | 64 µg/mL | > 64 µg/mL | 64 µg/mL | 2 µg/mL | 64 µg/mL | > 64 µg/mL | > 64 µg/mL | 4 µg/mL | 64 µg/mL | 2 µg/mL | 8 µg/mL | 32 µg/mL | 4 µg/mL | 8 µg/mL | 4 µg/mL | 8 µg/mL | 32 µg/mL | 16 µg/mL | 16 µg/mL | Ratio [17]: 16; Ratio [21]: >32; MBC [11]: > 64 µg/mL; MBC [16]: 64 µg/mL
6 | Cc1cc(-c2ccccc2)[n+](C)cc1-c1ccccc1 | – | – | – | – | – | – | – | – | – | – | – | – | – | – | – | – | – | – | – | – | Activity [28]: inactive
7 | CO[C@H]1/C=C/O[C@@]2(C)Oc3c(C)c(O)c4c(O)c(c(/C=N/N5CCN(C)CC5)c(O)c4c3C2=O)NC(=O)/C(C)=C\C=C\[C@H](C)[C@H](O)[C@@H](C)[C@@H](O)[C@@H](C)[C@H](OC(C)=O)[C@@H]1C | – | – | – | – | – | – | – | – | – | – | – | – | – | – | – | – | – | – | – | – | fold change (FC) [29]: 8192
8 | CN(C)c1ccc(/C=C/c2cc(-c3ccccc3)[n+](C)cc2-c2ccccc2)cc1.[I-] | 16 µg/mL | 64 µg/mL | – | > 64 µg/mL | 8 µg/mL | 16 µg/mL | – | – | 8 µg/mL | 8 µg/mL | 8 µg/mL | 8 µg/mL | 32 µg/mL | 1 µg/mL | 1 µg/mL | 0.5 µg/mL | 2 µg/mL | 16 µg/mL | 16 µg/mL | 8 µg/mL | –
9 | C[n+]1cc(-c2ccccc2)c(/C=C/c2ccc(N3CCCCC3)cc2)cc1-c1ccc(C(C)(C)C)cc1.[I-] | 1 µg/mL | 4 µg/mL | – | 8 µg/mL | 0.5 µg/mL | 1 µg/mL | – | – | 0.125 µg/mL | 1 µg/mL | 2 µg/mL | 1 µg/mL | 64 µg/mL | 0.5 µg/mL | 0.5 µg/mL | 0.25 µg/mL | 1 µg/mL | 2 µg/mL | 1 µg/mL | 0.25 µg/mL | –
10 | CCOc1ccc(/C=C/c2cc(-c3ccccc3)c[n+](C)c2-c2ccccc2)cc1.[I-] | 16 µg/mL | > 64 µg/mL | – | > 64 µg/mL | 4 µg/mL | 32 µg/mL | – | – | 16 µg/mL | 16 µg/mL | 8 µg/mL | 16 µg/mL | > 64 µg/mL | 4 µg/mL | 2 µg/mL | 2 µg/mL | 8 µg/mL | 32 µg/mL | 16 µg/mL | 16 µg/mL | –
11 | Cc1ccc(/C=C/c2cc(-c3ccc(C(C)(C)C)cc3)[n+](C)cc2-c2ccccc2C)cc1.[I-] | 2 µg/mL | 8 µg/mL | – | 8 µg/mL | 2 µg/mL | 2 µg/mL | – | – | 1 µg/mL | 4 µg/mL | 4 µg/mL | 2 µg/mL | 8 µg/mL | 0.5 µg/mL | 0.5 µg/mL | 1 µg/mL | 0.5 µg/mL | 2 µg/mL | 4 µg/mL | 2 µg/mL | –
